Results published in patent US20130045969A1, “PLANT DISEASE CONTROLLING COMPOSITION AND METHOD FOR CONTROLLING PLANT DISEASE” (SUMITOMO CHEMICAL COMPANY, LIMITED, priority 2010, published 2013).

System: gray mold fungus (Botrytis cinerea)
Experiment: Cucumber leaf disk preventive test against gray mold
Format: in vivo
Conditions: single compound, 15° C., four days
Method: True leaf of cucumber is punched out with cork borer to 13 mm in diameter to prepare a leaf disk. In 24 well microwell plate that is dispensed with 1 ml 0.8% water agar, the leaf disk is placed such that the upper side of the leaf is in an upward direction. Thereto is added 20 micro liter a testing solution prepared by mixing a dimethyl sulfoxide solution of the present compound (racemate) and a dimethyl sulfoxide solution of trifloxystrobin or pyribencarb to a predetermined concentration to treat the leaf disk. After confirming that the testing medical solution is dried, conidium of gray mold fungus (Botrytis cinerea) is suspended into potato dextrose broth (DIFCO) in a density of about 10^5 conidium/mL and is then subjected to a spray inoculation. After leaving to stand the leaf disk in a growth chamber set up at 15° C. for four days, an onset area on the leaf is measured and then calculated an onset area rate (hereinafter, referred to as an onset area rate of treated group). The same operation is carried out with 20 micro liter water instead of 20 micro liter a testing medicine solution to calculate an onset area rate (hereinafter, referred to an onset area rate of non-treated group). A preventive value is calculated from the above onset area rate of treated group and the onset area rate of non-treated group by the following equation: Preventive value (%)=100×(A−B)/A […] The same operations as described in Test Example 1 are carried out with azoxystrobin, dimoxystrobin, fluoxastrobin, kresoxim-methyl, metominostrobin, orysastrobin, picoxystrobin or pyraclostrobin instead of trifloxystrobin or pyribencarb, so as to calculate respective preventive values. Also for comparison, the same operations as described in Test Example 1 are carried out with the exception that the testing medicine solution is substituted with a predetermined concentration of each dimethyl sulfoxide solution of the present compound (racemate), azoxystrobin, dimoxystrobin, fluoxastrobin, kresoxim-methyl, metominostrobin, orysastrobin, picoxystrobin or pyraclostrobin, so as to calculate respective preventive values. For comparison, the same operations as described in Test Example 1 are carried out with the exception that the testing medicine solution is substituted with a predetermined concentration of each dimethyl sulfoxide solution of trifloxystrobin or pyribencarb, so as to calculate respective preventive values.

[1] = treatment concentration 0.5 ppm
[2] = treatment concentration 5.0 ppm

Row | Structure (SMILES) | preventive value (%) [1] | preventive value (%) [2]
1 | CO/C=C(/C(=O)OC)c1ccccc1Oc1cc(Oc2ccccc2C#N)ncn1 [azoxystrobin] | 43% | 53%
2 | CNC(=O)/C(=N/OC)c1ccccc1COc1cc(C)ccc1C [dimoxystrobin] | 48% | 57%
3 | CO/N=C(/C1=NOCCO1)c1ccccc1Oc1ncnc(Oc2ccccc2Cl)c1F [fluoxastrobin] | 43% | 52%
4 | CO/N=C(/C(=O)OC)c1ccccc1COc1ccccc1C [kresoxim-methyl] | 47% | 52%
5 | CNC(=O)/C(=N/OC)c1ccccc1Oc1ccccc1 [metominostrobin] | 10% | 20%
6 | CNC(=O)/C(=N/OC)c1ccccc1CO/N=C(C)/C(=N/OC)C(/C)=N/OC [orysastrobin] | 10% | 25%
7 | CO/C=C(/C(=O)OC)c1ccccc1COc1cccc(C(F)(F)F)n1 [picoxystrobin] | 10% | 30%
8 | COC(=O)N(OC)c1ccccc1COc1ccn(-c2ccc(Cl)cc2)n1 [pyraclostrobin] | 15% | 35%
9 | COC(=O)NCc1cc(/C(C)=N/OCc2cccc(C)n2)ccc1Cl [pyribencarb] | 42% | 58%
10 | CON=C(C(=O)OC)c1ccccc1CON=C(C)c1cccc(C(F)(F)F)c1 [trifloxystrobin] | 10% | 20%
